Patent publication US11059852B2, “Ergostenol glycoside derivative” (ST PHARM CO., LTD., priority 2017, dated 2021)

Assays:
Assay type in all cases: cell-based
[1] = system: CCL17 expression in HaCaT cells; assay: CCL17 gene expression (RT-PCR) in HaCaT cells induced by TNF-α and/or IFN-γ; settings: HaCaT cells, 2.5, 5, 10 and 20 μg/mL for one hour, then TNF-α, IFN-γ, or both, 18 hours; RNA level, FIG. 2
Procedure: (§1) 1×10^6 HaCaT cells were moved into a 6-well microplate, cultured in DMEM containing 10% (v/v) FBS for 12 hours, washed with PBS, and then treated in 2 mL of serum free media with ergostenol at each concentration of 2.5, 5, 10 and 20 μg/mL for one hour. After that, the cells were treated with inflammation-inducing molecules, i.e., TNF-α, IFN-γ, or TNF-α and IFN-γ, and then cultured for 18 hours. To identify a change in CCL17 and CCL22 expressions at an RNA level, RNAs were isolated with Trizol reagent kit (Invitrogen, Gaithersburg, Md.) according to a manufacturer's manual. A reverse transcription was performed with the isolated RNAs as a template to obtain cDNAs. A reverse transcription buffer solution (5 mM MgCl2, 1 mM dNTP, 2.5 U/μL reverse transcriptase, and 2.5 μM oligo (dT) 15 as a primer (omniscript RTkit, Qiagen)), 0.5 U of RNase inhibiter, 2.5 μM of oligo (dT) and 2.5 U of reverse transcriptase were added into 2 μg of […], and subjected to reaction at 37° C., such that the cDNAs were obtained. To quantify the obtained cDNAs, PCR was performed with the primers of a following table 1, after which the amplified DNAs were identified with 1% agarose gel.

[2] = system: CCL22 expression in HaCaT cells; assay: CCL22 gene expression (RT-PCR) in HaCaT cells induced by TNF-α and/or IFN-γ; settings: HaCaT cells, 2.5, 5, 10 and 20 μg/mL for one hour, then TNF-α, IFN-γ, or both, 18 hours; RNA level, FIG. 2
Procedure: as §1

[3] = system: CCL17 expression in HaCaT cells; assay: CCL17 protein in media (ELISA) of HaCaT cells induced by TNF-α and/or IFN-γ; settings: HaCaT cells, 2.5, 5, 10 and 20 μg/mL for one hour, then TNF-α, IFN-γ, or both, 18 hours, FIG. 3
Procedure: (§2) Also, to figure out an effect of ergostenol at a protein level, HaCaT cells were treated with ergostenol at a concentration of 2.5, 5, 10 and 20 μg/mL for one hour, then treated with molecules related to inflammation induction, i.e., TNF-α, IFN-γ, or TNF-α and IFN-γ, and then cultured for 18 hours. With regard to CCL17 and CCL22, the amount of proteins present in media was identified with an ELISA kit (R&D Systems, Minneapolis, Minn., USA). Captured antibodies (anti-CCL17 antibody and anti-CCL22 antibody) at 2 μg/mL were inserted into a 96-well plate in an amount of 50 μL, respectively, subjected to coating for two hours, and then subjected to blocking with PBS containing 1% BSA for one hour. Then, a collected sample was inserted into each well in an amount of 100 μL, respectively, and subjected to reaction for two hours. The cells were washed three times with PBS-T, after which 50 μL of detector antibodies (anti-CCL17 antibody and anti-CCL22 antibody) were inserted into each well at 100 ng/well, and subjected to reaction for two hours. […] The cells were fully washed with PBS-T, after which a substrate solution (TMB) was added thereto, such that absorbance thereof was measured at 450 nm.

[4] = system: CCL22 expression in HaCaT cells; assay: CCL22 protein in media (ELISA) of HaCaT cells induced by TNF-α and/or IFN-γ; settings: HaCaT cells, 2.5, 5, 10 and 20 μg/mL for one hour, then TNF-α, IFN-γ, or both, 18 hours, FIG. 3
Procedure: as §2

Ergostenol
decrease: level of CCL17 gene expression [1] | level of CCL22 gene expression [2] | level of CCL17 protein expression [3] | level of CCL22 protein expression [4]
